Experimental data from US12262712B2, “Oxime ether compound and application thereof” (SHENYANG SINOCHEM AGROCHEMICALS R&D CO., LTD., priority 2019, dated 2025).

Assays:
[1] = tested on: soft rot of Chinese cabbage; experiment: Control effect on soft rot of Chinese cabbage (leaf piece, spray, needle wound inoculation); assay type: in vivo, soft rot bacteria of Chinese cabbage; details: 400 mg/L, sprayed on leaf, 48 hours in the dark
Excerpt: (§1) The compounds of the present invention are used to determine the control effect on various plant bacterial diseases. For different bacterial diseases, the test procedures are as follows:
Soft rot of Chinese cabbage: 2 cm of square Chinese cabbage leaf is cut and placed in a glass petri dish lined with double-layer filter paper. A compound dissolved in N,N dimethylformamide and diluted with water to a required concentration is sprayed onto the surface of the Chinese cabbage leaf. After the medicinal liquid on the surface of the Chinese cabbage leaf is dried in a fume hood, the surface of the Chinese cabbage leaf is acupunctured by using an inoculating needle to cause a wound. […] of soft rot bacteria of Chinese cabbage cultured to a stable growth period is added to the wound for inoculation. Finally, the test materials are placed in an incubator and cultured for 48 hours in the dark; and the control effect is investigated after full onset of diseases through control.

[2] = tested on: melon bacterial fruit blotch; experiment: Control effect on melon bacterial fruit blotch (seed soak, greenhouse); assay type: in vivo; details: 400 mg/L, seeds soaked in bacteria plus compound solution
Description: as §1
Melon bacterial fruit blotch: the compound to be tested is dissolved with a small amount of N,N dimethylformamide and diluted with water to the required concentration. The pathogenic bacteria cultured to a stable growth stage is evenly mixed with a quantitative compound solution; the germinated melon seeds are soaked in the mixed solution of a bacteria solution and the compound for half an hour; then, the seeds are sown in an earthworm soil culture cup and put into a greenhouse for moisturizing cultivation for two weeks generally; and the control effect is investigated after full onset of diseases through control.

cucumber downy mildew = experiment: In vivo pot determination, control effect on cucumber downy mildew; details: 400 ppm, foliar spray, parallel comparison (Table 4)
Description: (§2) An in vivo pot determination method was adopted, i.e., a sample of the compound to be tested was dissolved with a small amount of solvent (the type of the solvent may be, for example, acetone, methanol and DMF, and selected according to the capability to dissolve the sample; the volume ratio of the amount of the solvent to the amount of sprayed solution is equal to or less than 0.05), diluted with water containing 0.1% Tween 80 and formulated into a required concentration of solution to be tested. Foliar spray treatment was carried out with the compounds of the present invention at the designed concentrations. A blank control with clear water spray was set and repeated for three times. Disease inoculation was carried out on the second day after the treatment. After inoculation, the plants were placed in a phytotron for moisturizing cultivation (temperature: 25° C. on day, 20° C. at night, relative humidity 95-99%). […] After the control was fully diseased (generally one week), the control effects of the compounds were evaluated. For the result survey, A Manual of Assessment Keys for Plant Diseases compiled by American Phytopathological Society can be referred to, which uses 100-0 for representation. “100” level represents no disease and “0” level represents the most severe disease degree.

soybean rust = experiment: In vivo pot determination, control effect on soybean rust; details: foliar spray
Description: as §2

[3] = tested on: bacterial spot of cucumber (Pseudomonas syringae pv. lachrymans); experiment: Field trial, control of bacterial spot of cucumber; assay type: in vivo; details: whole plant spray three times at 7 day interval, investigated 7 days after last delivery
Description: Compounds 47 and 97 were selected from the above compounds for field trial to control bacterial spot of cucumber (Pseudomonas syringae pv. lachrymans). The treatment dose of the test drug was 400 mg/L, and the treatment dose of a control drug CK2 was 700 mg/L. The test drug and the control drug were arranged in random blocks; the plot area was 15 m^2; and repetition was conducted for 3 times. The drug delivery mode was the whole plant spray. Drug delivery was conducted for three times, with an interval of 7 days, and control effect investigation was carried out 7 days after the last drug delivery. During investigation, 5 points in each plot were sampled; all leaves were investigated; and disease indexes and control effects were calculated according to the percentage level of diseased spot area of each leaf in the whole leaf area.

| SMILES | control effects on soft rot of Chinese cabbage [1] | control effects on melon bacterial fruit blotch [2] | other results |
| --- | --- | --- | --- |
| N#CC(C#N)=NOCc1csc(NC(=O)c2ccc([N+](=O)[O-])c(F)c2)n1 [Compound 45] | 100% | 100% | Control Effects on Cucumber Downy Mildew (%) (cucumber downy mildew): 100% |
| N#CC(C#N)=NOCc1csc(NC(=O)c2ccc(F)c(C(F)(F)F)c2)n1 [Compound 74] | 100% | 100% |  |
| N#CC(C#N)=NOCc1csc(NC(=O)c2ccccc2OC(F)(F)F)n1 [Compound 23] | 100% | 100% | Control Effects on Soybean Rust (%) (soybean rust; 100 ppm): 100%; Control Effects on Soybean Rust (%) (soybean rust; 200 ppm): 100% |
| N#CC(C#N)=NOCc1csc(NC(=O)c2ccc(Cl)cc2Cl)n1 [Compound 34] | 100% | 100% |  |
| CC(C)(C)OC(=O)Nc1nc(CON=C(C#N)C(N)=O)cs1 [Compound 253] | 100% | 100% |  |
| N#CC(C#N)=NOCc1csc(NC(=O)c2cccc(F)c2)n1 [Compound 6] | 100% | 100% |  |
| N#CC(C#N)=NOCc1csc(NC(=O)c2ccc(C(F)(F)F)cc2)n1 [Compound 22] | 100% | 100% |  |
| N#CC(C#N)=NOCc1cnc(Cl)s1 [CK1, reference compound] |  |  | Control Effects on Soybean Rust (%) (soybean rust; 100 ppm): 0%; Control Effects on Soybean Rust (%) (soybean rust; 200 ppm): 0%; Control Effects on Cucumber Downy Mildew (%) (cucumber downy mildew): 0% |
| N#CC(=NOCc1csc(N)n1)C(N)=O [Compound 179] | 100% | 100% | Control Effects on Soybean Rust (%) (soybean rust; 100 ppm): 80%; Control Effects on Soybean Rust (%) (soybean rust; 200 ppm): 100% |
| N#CC(C#N)=NOCc1csc(-c2ccccc2)n1 [CK2, reference compound] |  |  | Control Effect (%) ([3]; active ingredient dose 700 mg/L): 76.89%; Control Effects on Cucumber Downy Mildew (%) (cucumber downy mildew): 0% |
| CCC(=O)Nc1nc(CON=C(C#N)C#N)cs1 [Compound 118] | 100% | 100% |  |
| CC=CC(=O)Nc1nc(CON=C(C#N)C#N)cs1 [Compound 117] | 100% | 100% | Control Effects on Cucumber Downy Mildew (%) (cucumber downy mildew): 100% |
| N#CC(C#N)=NOCc1csc(NC(=O)c2ccccc2)n1 [Compound 95] | 100% | 100% |  |
| N#CC(C#N)=NOCc1csc(NC(=O)c2ccc(F)c(F)c2)n1 [Compound 87] | 100% | 100% |  |
| N#CC(C#N)=NOCc1csc(NC(=O)c2ccc3c(c2)OC(F)(F)O3)n1 [Compound 366] | 100% | 100% |  |
| N#CC(C#N)=NOCc1csc(NC(=O)c2ccc(Cl)cc2)n1 [Compound 4] | 100% | 100% |  |

| SMILES | control effects on soft rot of Chinese cabbage [1] | control effects on melon bacterial fruit blotch [2] | other results |
| --- | --- | --- | --- |
| N#CC(C#N)=NOCc1csc(NC(=O)c2ccc(F)cc2F)n1 [Compound 86] | 100% | 100% |  |
| N#CC(C#N)=NOCc1csc(NC(=O)c2ccc(Br)cc2)n1 [Compound 10] |  |  | Control Effects on Soybean Rust (%) (soybean rust; 100 ppm): 100%; Control Effects on Soybean Rust (%) (soybean rust; 200 ppm): 100% |
| N#CC(C#N)=NOCc1csc(-c2ccc(Cl)cc2)n1 [CK3, reference compound] |  |  | Control Effects on Cucumber Downy Mildew (%) (cucumber downy mildew): 0% |
| N#CC(C#N)=NOCc1csc(NC(=O)c2ccc(Cl)c(Cl)c2)n1 [Compound 36] | 100% | 100% |  |
| N#CC(=NOCc1csc(NC(=O)c2ccccc2Cl)n1)C(N)=O [Compound 134] | 100% | 100% |  |
| N#CC(C#N)=NOCc1csc(N)n1 [Compound 47, ((2-aminothiazole-4-yl)methoxy)iminoimide dicyanide] | 100% | 100% | Control Effect (%) ([3]; active ingredient dose 400 mg/L): 77.00%; Control Effects on Soybean Rust (%) (soybean rust; 100 ppm): 85%; Control Effects on Soybean Rust (%) (soybean rust; 200 ppm): 100% |
| N#CC(C#N)=NOCc1csc(NC(=O)c2ccccc2C(F)(F)F)n1 [Compound 20] | 100% | 100% | Control Effects on Cucumber Downy Mildew (%) (cucumber downy mildew): 100% |
| N#CC(C#N)=NOCc1csc(NN=C(c2ccc(Cl)cc2)c2ccc(Cl)cc2)n1 [Compound 367] | 100% | 100% |  |
| N#CC(C#N)=NOCc1csc(NC(=O)c2ccccc2F)n1 [Compound 5] | 100% | 100% |  |
| N#CC(C#N)=NOCc1csc(NC(=O)C(F)(F)F)n1 [Compound 119] | 100% | 100% |  |
| CC(=NNc1nc(CON=C(C#N)C#N)cs1)c1ccc(F)cc1 [Compound 361] | 100% | 100% |  |
| CC(C)(C)OC(=O)Nc1nc(CON=C(C#N)C#N)cs1 [Compound 123] | 100% | 100% |  |
| Cc1ccc(S(=O)(=O)Nc2nc(CON=C(C#N)C(N)=O)cs2)cc1 [Compound 228] | 100% | 100% |  |
| CCc1ccc(C(=O)Nc2nc(CON=C(C#N)C#N)cs2)cc1 [Compound 365] |  |  | Control Effects on Soybean Rust (%) (soybean rust; 100 ppm): 100%; Control Effects on Soybean Rust (%) (soybean rust; 200 ppm): 100% |
| N#CC(C#N)=NOCc1csc(NC(=O)c2cccnc2)n1 [Compound 65] | 100% | 100% |  |
